Measurements taken from patent US20240116985A1, “STAPLED PEPTIDES AND METHODS THEREOF” (priority 2020, published 2024).
pIC50: −log10 of the molar value. Where two headings read alike, the source gives them in different places.

Columns and labels:
[1] = molecular target: T1, full-length beta-Catenin (Uniprot ID P35222) (Homo sapiens, UniProt P35222); test: Fluorescence polarization IC50 (beta-catenin / 5FAM-TCF4 10-53 competition); assay type: binding; settings: fluorescence polarization
T1 construct: 10 nM full-length beta-Catenin (Uniprot ID P35222)
T1 sequence (P35222 1-781): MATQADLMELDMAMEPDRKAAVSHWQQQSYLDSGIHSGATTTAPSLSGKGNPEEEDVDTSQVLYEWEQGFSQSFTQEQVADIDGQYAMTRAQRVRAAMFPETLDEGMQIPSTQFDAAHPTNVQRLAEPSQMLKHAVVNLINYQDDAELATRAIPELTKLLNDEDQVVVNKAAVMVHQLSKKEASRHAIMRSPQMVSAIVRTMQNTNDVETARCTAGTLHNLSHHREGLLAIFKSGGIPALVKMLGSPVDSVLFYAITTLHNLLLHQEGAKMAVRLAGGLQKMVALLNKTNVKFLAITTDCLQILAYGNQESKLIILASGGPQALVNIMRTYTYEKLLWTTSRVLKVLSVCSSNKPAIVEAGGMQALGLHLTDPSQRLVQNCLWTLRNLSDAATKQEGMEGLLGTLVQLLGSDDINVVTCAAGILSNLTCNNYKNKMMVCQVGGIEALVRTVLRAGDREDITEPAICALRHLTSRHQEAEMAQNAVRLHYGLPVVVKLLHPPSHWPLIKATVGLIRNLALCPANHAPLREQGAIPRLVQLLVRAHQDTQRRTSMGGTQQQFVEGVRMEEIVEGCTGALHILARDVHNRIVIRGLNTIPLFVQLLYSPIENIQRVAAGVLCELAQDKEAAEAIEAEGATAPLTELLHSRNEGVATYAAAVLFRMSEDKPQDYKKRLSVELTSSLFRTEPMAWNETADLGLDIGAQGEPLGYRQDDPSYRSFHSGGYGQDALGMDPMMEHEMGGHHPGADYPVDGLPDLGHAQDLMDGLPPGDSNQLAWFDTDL

[2] = molecular target: T2, beta-catenin/TCF4 engagement (Homo sapiens, UniProt P35222); test: Nano-BRET target engagement assay (B-cat-Halo & TCF4-Luc in HEK293 cells); assay type: cell-based; settings: absolute IC50; read-out: NanoBRET Abs IC50
T2 construct: expressed in transfected cells; host or cells: HEK293
T2 sequence (P35222 1-781): T1 sequence (P35222 1-781)

[3] = beta-catenin, read-out: FP EC50

pIC50 ([1]; read-out: beta-Catenin FP IC50)	pIC50 [2]	pIC50 [1, 3]	SMILES
7.89	4.64	7.89	CC(=O)N1CCC[C@]12CC=CCCCC1(CCCC=CCCCCCC[C@@](C)(C(=O)N[C@@H](Cc3ccsc3)C(=O)N[C@@H](Cc3csc4ccccc34)C(=O)N[C@@H](CCC(N)=O)C(N)=O)NC(=O)[C@H](CC(N)=O)NC(=O)[C@H](Cc3ccccc3)NC(=O)[C@H](C)NC(=O)[C@H](C)NC(=O)[C@H](CN(CCCC(F)(F)F)CC(=O)O)NC(=O)[C@H](CC(=O)O)NC1=O)NC(=O)[C@H](CC(C)(C)C)NC(=O)[C@H](CC(=O)O)NC2=O (stereo partly drawn) [I-1455, Ac-PL3-Asp-Npg-B5-Asp-[Tfb]GA-Ala-Ala-Phe-Asn-S8-3Thi-BztA-Gln-NH2]
7.80	4.63		CC(=O)N1CCC[C@]12CC=CCCCC1(CCCC=CCCCCCC[C@@](C)(C(=O)N[C@@H](Cc3ccsc3)C(=O)N[C@@H](Cc3csc4ccccc34)C(=O)N[C@@H](CCC(N)=O)C(N)=O)NC(=O)[C@H](CC(N)=O)NC(=O)[C@H](Cc3ccccc3)NC(=O)[C@H](C)NC(=O)[C@H](C)NC(=O)[C@H](CN(CC(=O)O)Cc3ccccc3)NC(=O)[C@H](CC(=O)O)NC1=O)NC(=O)[C@H](CC(C)(C)C)NC(=O)[C@H](CC(=O)O)NC2=O (stereo partly drawn) [I-1456, Ac-PL3-Asp-Npg-B5-Asp-[Bn]GA-Ala-Ala-Phe-Asn-S8-3Thi-BztA-Gln-NH2]
7.37	< 4.70		CC(=O)N1CCC[C@]12CC=CCCCC1(CCCC=CCCCOC(=O)N3CC[C@@](C(=O)N[C@@H](Cc4ccccc4Cl)C(=O)N[C@@H](Cc4csc5ccccc45)C(=O)N[C@@H](CCC(N)=O)C(N)=O)(C3)NC(=O)[C@H](CC(N)=O)NC(=O)[C@H](Cc3ccccc3)NC(=O)[C@H](C)NC(=O)[C@H](C)NC(=O)[C@H](CNCCC(F)(F)F)NC(=O)[C@H](CC(=O)O)NC1=O)NC(=O)[C@H](CC(C)(C)C)NC(=O)[C@H](CC(=O)O)NC2=O (stereo partly drawn) [I-1457, Ac-PL3-Asp-Npg-B5-Asp-[Tfp]Dap-Ala-Ala-Phe-Asn-PyrS2-2C1F-BztA-Gln-NH2]
7.59	4.74		CC(=O)N1CCC[C@]12CC=CCCCC1(CCCC=CCCCCCC[C@@](C)(C(=O)N[C@@H](Cc3ccccc3)C(=O)N[C@@H](Cc3csc4ccccc34)C(=O)N[C@@H](CCC(N)=O)C(N)=O)NC(=O)[C@H](CCC(N)=O)NC(=O)[C@H](Cc3ccccc3)NC(=O)[C@H](C)NC(=O)[C@H](C)NC(=O)[C@H](CCC(=O)O)NC(=O)[C@H](CC(=O)O)NC1=O)NC(=O)[C@H](CC(C)C)NC(=O)[C@H](CC(=O)O)NC2=O (stereo partly drawn) [I-1458, Ac-PL3-Asp-Leu-B5-Asp-Glu-Ala-Ala-Phe-Gln-S8-Phe-BztA-Gln-NH2]
7.47	< 4.70		CC(=O)N1CCC[C@]12CC=CCCCC1(CCCC=CCCCOC(=O)N3CC[C@@](C(=O)N[C@@H](Cc4ccsc4)C(=O)N[C@@H](Cc4csc5ccccc45)C(=O)N[C@@H](CCC(N)=O)C(N)=O)(C3)NC(=O)[C@H](CC(C)C)NC(=O)[C@H](Cc3ccccc3)NC(=O)[C@H](C)NC(=O)[C@H](C)NC(=O)[C@H](CC(=O)O)NC(=O)[C@H](CC(=O)O)NC1=O)NC(=O)[C@H](CCCCNC(=O)C13CC4(C)CC(C)(CC(C)(C4)C1)C3)NC(=O)[C@H](CC(=O)O)NC2=O (stereo partly drawn) [I-1471, Ac-PL3-Asp-[Me3AdamantC]-Lys-B5-Asp-Asp-Ala-Ala-Phe-Leu-PyrS2-3Thi-BztA-Gln-NH2]
7.92	< 4.70		CC(=O)N1CCC[C@]12CC=CCCCC1(CCCC=CCCCOC(=O)N3CC[C@@](C(=O)N[C@@H](Cc4ccsc4)C(=O)N[C@@H](Cc4csc5ccccc45)C(=O)N[C@@H](CCC(N)=O)C(N)=O)(C3)NC(=O)[C@H](CC(C)C)NC(=O)[C@H](Cc3ccccc3)NC(=O)[C@H](C)NC(=O)[C@H](C)NC(=O)[C@H](CC(=O)O)NC(=O)[C@H](CC(=O)O)NC1=O)NC(=O)[C@H](CCCCNC(=O)COCCOCCNC(=O)C13CC4(C)CC(C)(CC(C)(C4)C1)C3)NC(=O)[C@H](CC(=O)O)NC2=O (stereo partly drawn) [I-1472, Ac-PL3-Asp-[Me3AdamantC-PEG2]-Lys-B5-Asp-Asp-Ala-Ala-Phe-Leu-PyrS2-3Thi-BztA-Gln-NH2]

More lines, now with the values behind:

SMILES	pIC50 ([1]; read-out: beta-Catenin FP IC50)	pIC50 [2]	pIC50 [1, 3]
CC(=O)N1CCC[C@]12CC=CCCCC1(CCCC=CCCCOC(=O)N3CC[C@@](C(=O)N[C@@H](Cc4ccsc4)C(=O)N[C@@H](Cc4csc5ccccc45)C(=O)N[C@@H](CCC(N)=O)C(N)=O)(C3)NC(=O)[C@H](CC(C)C)NC(=O)[C@H](Cc3ccccc3)NC(=O)[C@H](C)NC(=O)[C@H](C)NC(=O)[C@H](Cc3cn(CC(=O)O)c4ccccc34)NC(=O)[C@H](CC(=O)O)NC1=O)NC(=O)[C@H](CC(C)(C)C)NC(=O)[C@H](CC(=O)O)NC2=O (stereo partly drawn) [I-1445, Ac-PL3-Asp-Npg-B5-Asp-1AcAW-Ala-Ala-Phe-Leu-PyrS2-3Thi-BztA-Gln-NH2]	7.89	4.95	
CC(=O)N1CCC[C@]12CC=CCCCC1(CCCC=CCCCOC(=O)N3CC[C@@](C(=O)N[C@@H](Cc4ccccc4Cl)C(=O)N[C@@H](Cc4csc5ccccc45)C(=O)N[C@@H](CCC(N)=O)C(N)=O)(C3)NC(=O)[C@H](CC(N)=O)NC(=O)[C@H](Cc3ccccc3)NC(=O)[C@H](C)NC(=O)[C@H](C)NC(=O)[C@H](CN(CCCC(F)(F)F)CC(=O)O)NC(=O)[C@H](CC(=O)O)NC1=O)NC(=O)[C@H](CC(C)(C)C)NC(=O)[C@H](CC(=O)O)NC2=O (stereo partly drawn) [I-1446, Ac-PL3-Asp-Npg-B5-Asp-[Tfb]GA-Ala-Ala-Phe-Asn-PyrS2-2C1F-BztA-Gln-NH2]	8.05	4.45	
CC(=O)N1CCC[C@]12CC=CCCCC1(CCCC=CCCCOC(=O)N3CC[C@@](C(=O)N[C@@H](Cc4ccccc4Cl)C(=O)N[C@@H](Cc4csc5ccccc45)C(=O)N[C@@H](CCC(N)=O)C(N)=O)(C3)NC(=O)[C@H](CC(N)=O)NC(=O)[C@H](Cc3ccccc3)NC(=O)[C@H](C)NC(=O)[C@H](C)NC(=O)[C@H](CN(CC(=O)O)Cc3ccccc3)NC(=O)[C@H](CC(=O)O)NC1=O)NC(=O)[C@H](CC(C)(C)C)NC(=O)[C@H](CC(=O)O)NC2=O (stereo partly drawn) [I-1447, Ac-PL3-Asp-Npg-B5-Asp-[Bn]GA-Ala-Ala-Phe-Asn-PyrS2-2C1F-BztA-Gln-NH2]	7.96	4.36	
CC(=O)N1CCC[C@]12CC=CCCCC1(CCCC=CCCCOC(=O)N3CC[C@@](C(=O)N[C@@H](Cc4ccccc4Cl)C(=O)N[C@@H](Cc4csc5ccccc45)C(=O)N[C@@H](CCC(N)=O)C(N)=O)(C3)NC(=O)[C@H](CC(N)=O)NC(=O)[C@H](Cc3ccccc3)NC(=O)[C@H](C)NC(=O)[C@H](C)NC(=O)[C@H](CN(CC(=O)O)Cc3c(F)c(F)c(F)c(F)c3F)NC(=O)[C@H](CC(=O)O)NC1=O)NC(=O)[C@H](CC(C)(C)C)NC(=O)[C@H](CC(=O)O)NC2=O (stereo partly drawn) [I-1449, Ac-PL3-Asp-Npg-B5-Asp-[Pfbn]GA-Ala-Ala-Phe-Asn-PyrS2-2C1F-BztA-Gln-NH2]	7.80	4.53	7.80
CC(=O)N1CCC[C@]12CC=CCCCC1(CCCC=CCCCOC(=O)N3CC[C@@](C(=O)N[C@@H](Cc4ccccc4Cl)C(=O)N[C@@H](Cc4csc5ccccc45)C(=O)N[C@@H](CCC(N)=O)C(N)=O)(C3)NC(=O)[C@H](CC(N)=O)NC(=O)[C@H](Cc3ccccc3)NC(=O)[C@H](C)NC(=O)[C@H](C)NC(=O)[C@H](CN(CC(=O)O)C(C)C)NC(=O)[C@H](CC(=O)O)NC1=O)NC(=O)[C@H](CC(C)(C)C)NC(=O)[C@H](CC(=O)O)NC2=O (stereo partly drawn) [I-1451, Ac-PL3-Asp-Npg-B5-Asp-[iPr]GA-Ala-Ala-Phe-Asn-PyrS2-2C1F-BztA-Gln-NH2]	7.89	4.58	
CC(=O)N1CCC[C@]12CC=CCCCC1(CCCC=CCCCCCC[C@@](C)(C(=O)N[C@@H](Cc3ccsc3)C(=O)N[C@@H](Cc3csc4ccccc34)C(=O)N[C@@H](CCC(N)=O)C(N)=O)NC(=O)[C@H](CC(N)=O)NC(=O)[C@H](Cc3ccccc3)NC(=O)[C@H](C)NC(=O)[C@H](C)NC(=O)[C@H](CN(CCCC(F)(F)F)CC(=O)O)NC(=O)[C@H](CC(=O)O)NC1=O)NC(=O)[C@H](CC(C)(C)C)NC(=O)[C@H](CC(=O)O)NC2=O (stereo partly drawn) [I-1454, Ac-PL3-Asp-Npg-B5-Asp-[Tfb]GA-Ala-Ala-Phe-Asn-S8-3Thi-BztA-Gln-NH2]	7.66	4.57	7.66
CC(=O)N1CCC[C@]12CC=CCCCC1(CCCC=CCCCOC(=O)N3CC[C@@](C(=O)N[C@@H](Cc4ccsc4)C(=O)N[C@@H](Cc4csc5ccccc45)C(=O)N[C@@H](CCC(N)=O)C(N)=O)(C3)NC(=O)[C@H](CC(C)C)NC(=O)[C@H](Cc3ccccc3)NC(=O)[C@H](C)NC(=O)[C@H](C)NC(=O)[C@H](CC(=O)O)NC(=O)[C@H](CC(=O)O)NC1=O)NC(=O)[C@H](CCCCNC(=O)COCCOCCNC(=O)CC[C@@H](C)[C@H]1CC[C@H]3[C@@H]4CC[C@@H]5C[C@H](O)CC[C@]5(C)[C@H]4CC[C@]13C)NC(=O)[C@H](CC(=O)O)NC2=O (stereo partly drawn) [I-1470, Ac-PL3-Asp-[lithocholate-PEG2]-Lys-B5-Asp-Asp-Ala-Ala-Phe-Leu-PyrS2-3Thi-BztA-Gln-NH2]	7.24	< 4.70	
